# Results from patent US20260263429A1, “INHIBITORS OF CA 2+/CALMODULIN-DEPENDENT PROTEIN KINASE II (CAMKII) THAT DO NOT INHIBIT LONG-TERM POTENTIATION (LTP) INDUCTION AND THERAPEUTIC USES THEREOF” (The Regents of the University of Colorado, A Body Corporate, priority 2023, published 2026).
# Where two headings read alike, the source gives them in different places.
# Columns and labels:
# [1] = test system: CaMKII movement to excitatory synapses; assay: cLTP-induced CaMKII movement to excitatory synapses in the presence of soluble oligomeric Aβ; format: cell-based; settings: 0.5 μM Aβ, 45 minutes prior to cLTP
# purified CaMKIIα [2] = molecular target: T1, purified CaMKIIα (Homo sapiens, UniProt Q9UQM7); settings: read-out: previously published Km values of CaMKII for ATP; cited from earlier work
# purified CaMKIIα [3] = molecular target: T1, purified CaMKIIα; assay: In vitro kinase reactions with purified CaMKIIα (GluA1 S831, T286, GluN2B S1303 phosphorylation); format: biochemical; design: made in house; host or cells: baculovirus/Sf9 (CaMKIIα); BL21 bacteria (CaM); settings: GST-GluA1 S831 phosphorylation, 30° C., half-maximal response, four experiments; read-out: Km value of ATP (to activate CaMKII)
# Method: (§1) In a series of exemplary methods, an in vitro kinase assay was used where purified CaMKIIα is incubated at 30° C. with GST-GluA1 alongside ATP. CaMKIIα normally phosphorylates S831 on the GluA1 subunit and this phosphorylation can be measured as a readout of CaMKIIα enzymatic activity (see e.g., FIG. 8B). […] In another exemplary method, binding of purified CaMKIIα to immobilized GST-GluN2B-c was induced by Ca^2+/CaM in the presence of a vehicle (none), 4 mM ADP or with […] AS105. […] At the same time, two exemplary methods were performed to observe ionomycin or chemical LTP (cLTP) induced co-localization of CaMKII and GluN2B either in HEK293 cells co-expressing GFP-CaMKII and mCherry-2BC or dissociated rat hippocampal cultures expressing GFP-CaMKII and mCh-PSD95 intrabody. HEK293 cells, incubating with vehicle or 10 μM AS105, were subjected to ionomycin. Hippocampal cultures, also incubating with either vehicle or 10 μM AS105, were treated with a chemical LTP (cLTP) stimulus (e.g., 100 μM glutamate, 10 μM glycine for 45 seconds). Confocal microscopy images were taken before and after each stimulus.
# Therefore, in another exemplary method, the ability of AS283 to selective inhibit CAMKII enzymatic activity without interfering with its binding to GluN2B was tested. In a first method, in vitro kinase reactions were performed at 30° C. in 1 mM ATP measuring purified CaMKIIα phosphorylation of GST-GluA1 S831 with varying concentrations of AS283 (0.41-10 μM).
# (§2) One possible mechanism by which AS283 could enhance GluN2B binding more than ATP is by suppressing CaMKII-mediated phosphorylation of GluN2B at S1303, as this phosphorylation within the CaMKII binding site on GluN2B reduces CaMKII binding.
# In vitro phosphorylation assays. CaMKII-mediated phosphorylation of GluA1 S831 was measured by in vitro kinase reaction with purified GST-GluA1 c-terminal tail. Reactions contained 40 nM CaMKII (or water for negative controls), 1 μM GST-GluA1, 50 mM PIPES pH 7.1, 2 mM CaCl2), 10 mM MgCl2, 1 μM calmodulin, 1-4 mM ATP, and 1 PM of okadaic acid. Reactions were done at 30° C. for 20 s; reactions were stopped by adding SDS-loading buffer and incubation in a boiling water bath for 5 min. GST, phospho-S831, CaMKII, phospho-T286, or phospho-S1303 were detected in the samples by immunoblot analysis.
# Km and Ki determination. The inhibition constant Ki was calculated using the Cheng-Prusoff equation for competitive inhibition: Ki=IC50/(1+[ATP]/Km).
# [4] = test system: CaMKIIα binding to GST-GluN2B-c; settings: 4 mM ADP or AS105
# Method: as §1, §2
# Bound CaMKII was measured via immunoblot.
molecule,measurement,setting,value
C[C@@H](c1ccc(-c2ccccc2)c(F)c1)c1cc(/N=C(\N)N2CCOCC2)on1 [rimacalib],rescue of Aβ-blocked cLTP-induced movement of CaMKII to the synapses,[1]; inhibitor 10 μM,rescued
"Aβ: Amyloid beta (1-42) peptide purchased from Anaspec, soluble oligomeric preparation",effect of Aβ on cLTP-induced movement of CaMKII to the synapses,[1],blocks cLTP induced movement of CaMKII to the synapses
Nc1ncnc2c1ncn2[C@@H]1O[C@H](COP(=O)(O)OP(=O)(O)OP(=O)(O)O)[C@@H](O)[C@H]1O [ATP],Km,purified CaMKIIα [2],8 to 127 µM
same,Km,purified CaMKIIα [3],33.3 µM
Nc1ncnc2c1ncn2[C@@H]1O[C@H](COP(=O)(O)OP(=O)(O)O)[C@@H](O)[C@H]1O [ADP],Ca2+/CaM-induced binding of CaMKIIα to immobilized GST-GluN2B-c versus vehicle (none),[4],induced binding
